Measurements published in EP4596574A1, “GLP-1/GCG/GIP TRIPLE-RECEPTOR AGONIST AND USE THEREOF” (Sunshine Lake Pharma Co., Ltd., priority 2022, dated 2024).
Starred links: 1 amine or outer side, 2 acyl side, 3 side chain; linkers in the order of their positions; H or OH if unused. Non-standard residues stand in square brackets, D forms with d. Residues, ends and D or L forms follow the SMILES beside them. Groups on a side chain read outwards from the residue. *: point of attachment. C20 diacid = O=C(O)CCCCCCCCCCCCCCCCCCC(=O)*; C18 diacid = O=C(O)CCCCCCCCCCCCCCCCC(=O)*; αMePhe(2-F) = C[C@](N)(Cc1ccccc1F)C(=O)O; γGlu = O=C(O)[C@H](CCC(=O)[*:2])N[*:1]; AEEA = NCCOCCOCC(=O)O; Aib = CC(C)(N)C(=O)O

How the values were obtained:
Format in all cases: cell-based
GLP-1R = target: T1, GLP-1R (Homo sapiens, UniProt P43220); assay: In vitro cell activity, cAMP production in HEK293 cells expressing GLP-1R; conditions: HEK293-GLP-1R cells, cAMP; read-out: GLP-1R (EC50)
T1 construct: expressed in transfected cells; host or cells: HEK293 (HEK293-GLP-1R)
Outline: (§1)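 Cells were plated at 4×10^5 cells/mL, and detection reagents (cAMP-d2, anti-cAMP cryptate, 1:1) were incubated 1 h at room temperature in the dark or overnight at 4 °C.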

GCGR = target: T2, GCGR (Homo sapiens, UniProt P47871); assay: In vitro cell activity, cAMP production in HEK293 cells expressing GCGR; conditions: HEK293-GCGR cells, cAMP; read-out: GCGR (EC50)
T2 construct: expressed in transfected cells; host or cells: HEK293 (HEK293-GCGR)
Outline: as §1

GIPR = target: T3, GIPR (Homo sapiens, UniProt P48546); assay: In vitro cell activity, cAMP production in HEK293 cells expressing GIPR; conditions: HEK293-GIPR cells, cAMP; read-out: GIPR (EC50)
T3 construct: expressed in transfected cells; host or cells: HEK293 (HEK293-GIPR)
T3 sequence (P48546 22-466): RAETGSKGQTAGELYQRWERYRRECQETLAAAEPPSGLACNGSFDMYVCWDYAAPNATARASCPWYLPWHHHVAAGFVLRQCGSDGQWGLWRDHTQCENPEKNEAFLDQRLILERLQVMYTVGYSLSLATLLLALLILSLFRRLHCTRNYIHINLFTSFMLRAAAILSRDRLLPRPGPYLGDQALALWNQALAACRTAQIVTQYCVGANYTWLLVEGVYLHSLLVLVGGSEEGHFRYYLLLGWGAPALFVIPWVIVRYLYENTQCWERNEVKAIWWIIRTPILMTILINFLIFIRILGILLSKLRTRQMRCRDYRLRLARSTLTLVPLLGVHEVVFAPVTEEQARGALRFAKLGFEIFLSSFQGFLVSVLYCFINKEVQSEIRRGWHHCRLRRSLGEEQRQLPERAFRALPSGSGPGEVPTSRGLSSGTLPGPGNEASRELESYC
Outline: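 cAMP accumulation is quantified by homogeneous TR-FRET (cAMP-d2 plus anti-cAMP cryptate) in GIPR-expressing HEK293 cells seeded from a 4×10^5 cells/mL suspension and treated with compound. The signal ratio is plotted against concentration and fitted to a four-parameter curve to give EC50.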

T2 sequence (P47871 26-477, species assumed): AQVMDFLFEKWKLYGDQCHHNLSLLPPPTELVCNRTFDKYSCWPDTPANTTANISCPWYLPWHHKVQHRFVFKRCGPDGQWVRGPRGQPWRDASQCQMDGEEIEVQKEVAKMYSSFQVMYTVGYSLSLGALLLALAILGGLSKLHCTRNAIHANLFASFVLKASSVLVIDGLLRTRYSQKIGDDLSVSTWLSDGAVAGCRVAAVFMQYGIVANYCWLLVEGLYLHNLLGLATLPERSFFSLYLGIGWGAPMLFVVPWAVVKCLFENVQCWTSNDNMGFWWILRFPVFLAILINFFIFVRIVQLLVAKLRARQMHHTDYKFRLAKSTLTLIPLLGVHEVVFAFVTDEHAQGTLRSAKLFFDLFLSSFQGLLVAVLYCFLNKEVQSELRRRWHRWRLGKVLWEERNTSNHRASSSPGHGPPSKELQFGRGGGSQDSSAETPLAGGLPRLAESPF
T1 sequence (P43220 24-463, species assumed): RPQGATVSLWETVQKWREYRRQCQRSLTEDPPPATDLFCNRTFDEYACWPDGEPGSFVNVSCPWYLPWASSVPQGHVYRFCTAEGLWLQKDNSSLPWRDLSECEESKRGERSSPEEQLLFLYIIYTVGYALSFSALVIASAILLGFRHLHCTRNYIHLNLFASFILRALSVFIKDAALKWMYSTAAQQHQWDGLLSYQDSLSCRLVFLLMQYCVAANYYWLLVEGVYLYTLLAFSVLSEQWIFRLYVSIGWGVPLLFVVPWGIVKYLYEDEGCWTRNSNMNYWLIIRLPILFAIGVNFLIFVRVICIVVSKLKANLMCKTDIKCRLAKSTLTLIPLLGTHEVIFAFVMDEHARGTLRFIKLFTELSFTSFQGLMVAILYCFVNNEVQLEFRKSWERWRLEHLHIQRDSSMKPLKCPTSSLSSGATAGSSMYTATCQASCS

SMILES | EC50 (GLP-1R) | EC50 (GCGR) | EC50 (GIPR)
CC[C@H](C)[C@H](NC(=O)[C@H](Cc1ccccc1)NC(=O)[C@H](C)NC(=O)[C@H](CCC(N)=O)NC(=O)[C@H](CCC(N)=O)NC(=O)[C@H](C)NC(=O)[C@H](CCCCNC(=O)COCCOCCNC(=O)CC[C@H](NC(=O)CCCCCCCCCCCCCCCCCCC(=O)O)C(=O)O)NC(=O)[C@H](CCC(=O)O)NC(=O)[C@H](CC(=O)O)NC(=O)[C@H](CC(C)C)NC(=O)[C@H](CC(C)C)NC(=O)[C@@H](NC(=O)[C@H](CO)NC(=O)[C@H](Cc1ccc(O)cc1)NC(=O)[C@H](CC(=O)O)NC(=O)[C@H](CO)NC(=O)[C@@H](NC(=O)[C@](C)(Cc1ccccc1F)NC(=O)[C@@H](NC(=O)CNC(=O)[C@H](CCC(N)=O)NC(=O)C(C)(C)NC(=O)[C@@H](N)Cc1ccc(O)cc1)[C@@H](C)O)[C@@H](C)O)[C@@H](C)CC)C(=O)N[C@@H](CCC(=O)O)C(=O)N[C@@H](Cc1ccc(O)cc1)C(=O)N[C@@H](CC(C)C)C(=O)N[C@@H](CC(C)C)C(=O)N[C@@H](CCC(=O)O)C(=O)NCC(=O)NCC(=O)N1CCC[C@H]1C(=O)N[C@@H](CO)C(=O)N[C@@H](CO)C(=O)NCC(=O)N[C@@H](C)C(=O)N1CCC[C@H]1C(=O)N1CCC[C@H]1C(=O)N1CCC[C@H]1C(=O)N[C@@H](CO)C(=O)O [HEC-PT68] | 0.415 nM | 0.748 nM | 0.199 nM
CC[C@H](C)[C@H](NC(=O)[C@H](Cc1ccccc1)NC(=O)[C@H](C)NC(=O)[C@H](CCC(N)=O)NC(=O)[C@H](CCC(N)=O)NC(=O)[C@H](CCCNC(=N)N)NC(=O)[C@@H](NC(=O)[C@H](CCCCN)NC(=O)[C@H](CC(=O)O)NC(=O)[C@H](CCCCNC(=O)COCCOCCNC(=O)CC[C@H](NC(=O)CCCCCCCCCCCCCCCCC(=O)O)C(=O)O)NC(=O)[C@H](CC(C)C)NC(=O)[C@@H](NC(=O)[C@H](CO)NC(=O)[C@H](Cc1ccc(O)cc1)NC(=O)[C@H](CC(=O)O)NC(=O)[C@H](CO)NC(=O)[C@@H](NC(=O)[C@](C)(Cc1ccccc1F)NC(=O)[C@@H](NC(=O)CNC(=O)[C@H](CCC(N)=O)NC(=O)C(C)(C)NC(=O)[C@@H](N)Cc1ccc(O)cc1)[C@@H](C)O)[C@@H](C)O)[C@@H](C)CC)[C@@H](C)CC)C(=O)N[C@@H](CCC(=O)O)C(=O)N[C@@H](Cc1ccc(O)cc1)C(=O)N[C@@H](CC(C)C)C(=O)N[C@@H](CC(C)C)C(=O)N[C@@H](CCC(=O)O)C(=O)NCC(=O)NCC(=O)N1CCC[C@H]1C(=O)N[C@@H](CO)C(=O)N[C@@H](CO)C(=O)NCC(=O)N[C@@H](C)C(=O)N1CCC[C@H]1C(=O)N1CCC[C@H]1C(=O)N1CCC[C@H]1C(=O)N[C@@H](CO)C(N)=O [HEC-PT143] (H-Y[Aib]QGT[αMePhe(2-F)]TSDYSILK([AEEA-γGlu-C18 diacid])DKIRQQAFIEYLLEGGPSSGAPPPS-NH2) | 0.14 nM | 0.173 nM | 0.063 nM
CC[C@H](C)[C@H](NC(=O)[C@H](CO)NC(=O)[C@H](Cc1ccc(O)cc1)NC(=O)[C@H](CC(=O)O)NC(=O)[C@H](CO)NC(=O)[C@@H](NC(=O)[C@](C)(Cc1ccccc1F)NC(=O)[C@@H](NC(=O)CNC(=O)[C@H](CCC(N)=O)NC(=O)C(C)(C)NC(=O)[C@@H](N)Cc1ccc(O)cc1)[C@@H](C)O)[C@@H](C)O)C(=O)N[C@@H](CC(C)C)C(=O)N[C@@H](CC(C)C)C(=O)N[C@@H](CC(=O)O)C(=O)N[C@@H](CCC(=O)O)C(=O)N[C@@H](CCCCNC(=O)COCCOCCNC(=O)CC[C@H](NC(=O)CCCCCCCCCCCCCCCCC(=O)O)C(=O)O)C(=O)N[C@@H](CCCNC(=N)N)C(=O)N[C@@H](CCC(N)=O)C(=O)NC(C)(C)C(=O)N[C@@H](CCC(=O)O)C(=O)N[C@@H](Cc1ccccc1)C(=O)N[C@H](C(=O)N[C@@H](CCC(=O)O)C(=O)N[C@@H](Cc1c[nH]c2ccccc12)C(=O)N[C@@H](CC(C)C)C(=O)N[C@@H](CC(C)C)C(=O)N[C@@H](C)C(=O)NCC(=O)NCC(=O)N1CCC[C@H]1C(=O)N[C@@H](CO)C(=O)N[C@@H](CO)C(=O)NCC(=O)N[C@@H](C)C(=O)N1CCC[C@H]1C(=O)N1CCC[C@H]1C(=O)N1CCC[C@H]1C(=O)N[C@@H](CO)C(N)=O)[C@@H](C)CC [HEC-PT110] | 0.116 nM | 1.33 nM | 0.045 nM
CC[C@H](C)[C@H](NC(=O)[C@H](Cc1ccccc1)NC(=O)[C@H](C)NC(=O)[C@H](CCC(N)=O)NC(=O)[C@H](CCC(N)=O)NC(=O)[C@H](CCCNC(=N)N)NC(=O)[C@@H](NC(=O)[C@H](CCCNC(=N)N)NC(=O)[C@H](CC(=O)O)NC(=O)[C@H](CCCCNC(=O)COCCOCCNC(=O)CC[C@H](NC(=O)CCCCCCCCCCCCCCCCC(=O)O)C(=O)O)NC(=O)[C@H](CC(C)C)NC(=O)[C@@H](NC(=O)[C@H](CO)NC(=O)[C@H](Cc1ccc(O)cc1)NC(=O)[C@H](CC(=O)O)NC(=O)[C@H](CO)NC(=O)[C@@H](NC(=O)[C@](C)(Cc1ccccc1F)NC(=O)[C@@H](NC(=O)CNC(=O)[C@H](CCC(N)=O)NC(=O)C(C)(C)NC(=O)[C@@H](N)Cc1ccc(O)cc1)[C@@H](C)O)[C@@H](C)O)[C@@H](C)CC)[C@@H](C)CC)C(=O)N[C@@H](CCC(=O)O)C(=O)N[C@@H](Cc1ccc(O)cc1)C(=O)N[C@@H](CC(C)C)C(=O)N[C@@H](CC(C)C)C(=O)N[C@@H](CCC(=O)O)C(=O)NCC(=O)NCC(=O)N1CCC[C@H]1C(=O)N[C@@H](CO)C(=O)N[C@@H](CO)C(=O)NCC(=O)N[C@@H](C)C(=O)N1CCC[C@H]1C(=O)N1CCC[C@H]1C(=O)N1CCC[C@H]1C(=O)N[C@@H](CO)C(=O)O [HEC-PT146] (H-Y[Aib]QGT[αMePhe(2-F)]TSDYSILK([AEEA-γGlu-C18 diacid])DRIRQQAFIEYLLEGGPSSGAPPPS-OH) | 0.365 nM | 0.121 nM | 0.105 nM
CC[C@H](C)[C@H](NC(=O)[C@H](CCC(=O)O)NC(=O)[C@H](CC(=O)O)NC(=O)[C@H](CC(C)C)NC(=O)[C@H](CC(C)C)NC(=O)[C@@H](NC(=O)[C@H](CO)NC(=O)[C@H](Cc1ccc(O)cc1)NC(=O)[C@H](CC(=O)O)NC(=O)[C@H](CO)NC(=O)[C@@H](NC(=O)[C@](C)(Cc1ccccc1F)NC(=O)[C@@H](NC(=O)CNC(=O)[C@H](Cc1c[nH]cn1)NC(=O)C(C)(C)NC(=O)[C@@H](N)Cc1ccc(O)cc1)[C@@H](C)O)[C@@H](C)O)[C@@H](C)CC)C(=O)N[C@@H](C)C(=O)N[C@@H](CCC(N)=O)C(=O)N[C@@H](CCCCNC(=O)COCCOCCNC(=O)COCCOCCNC(=O)CC[C@H](NC(=O)CCCCCCCCCCCCCCCCCCC(=O)O)C(=O)O)C(=O)N[C@@H](CC(=O)O)C(=O)N[C@@H](Cc1ccccc1)C(=O)N[C@H](C(=O)N[C@@H](CCC(=O)O)C(=O)N[C@@H](Cc1c[nH]c2ccccc12)C(=O)N[C@@H](CC(C)C)C(=O)N[C@@H](CC(C)C)C(=O)N[C@@H](CCC(=O)O)C(=O)NCC(=O)NCC(=O)N1CCC[C@H]1C(=O)N[C@@H](CO)C(=O)N[C@@H](CO)C(=O)NCC(=O)N[C@@H](C)C(=O)N1CCC[C@H]1C(=O)N1CCC[C@H]1C(=O)N1CCC[C@H]1C(=O)N[C@@H](CO)C(=O)O)[C@@H](C)CC [HEC-PT66] (H-Y[Aib]HGT[αMePhe(2-F)]TSDYSILLDEIAQK([AEEA-AEEA-γGlu-C20 diacid])DFIEWLLEGGPSSGAPPPS-OH) | 7.14 nM | 12.3 nM | 0.213 nM
CC[C@H](C)[C@H](NC(=O)[C@H](Cc1ccccc1)NC(=O)[C@H](C)NC(=O)[C@H](Cc1c[nH]cn1)NC(=O)[C@H](CCC(N)=O)NC(=O)[C@H](C)NC(=O)[C@H](CCCCNC(=O)COCCOCCNC(=O)CC[C@H](NC(=O)CCCCCCCCCCCCCCCCC(=O)O)C(=O)O)NC(=O)[C@H](CCCNC(=N)N)NC(=O)[C@H](CC(=O)O)NC(=O)[C@H](CC(C)C)NC(=O)[C@H](CC(C)C)NC(=O)[C@@H](NC(=O)[C@H](CO)NC(=O)[C@H](Cc1ccc(O)cc1)NC(=O)[C@H](CC(=O)O)NC(=O)[C@H](CO)NC(=O)[C@@H](NC(=O)[C@](C)(Cc1ccccc1F)NC(=O)[C@@H](NC(=O)CNC(=O)[C@H](CCC(N)=O)NC(=O)C(C)(C)NC(=O)[C@@H](N)Cc1c[nH]cn1)[C@@H](C)O)[C@@H](C)O)[C@@H](C)CC)C(=O)N[C@@H](CCC(=O)O)C(=O)N[C@@H](Cc1ccc(O)cc1)C(=O)N[C@@H](CC(C)C)C(=O)N[C@@H](CC(C)C)C(=O)N[C@@H](C)C(=O)NCC(=O)NCC(=O)N1CCC[C@H]1C(=O)N[C@@H](CO)C(=O)N[C@@H](CO)C(=O)NCC(=O)N[C@@H](C)C(=O)N1CCC[C@H]1C(=O)N1CCC[C@H]1C(=O)N1CCC[C@H]1C(=O)N[C@@H](CO)C(=O)O [HEC-PT155] | 0.0555 nM | 0.0581 nM | 0.0509 nM
